Experimental findings from ChEMBL document CHEMBL1201862, “PubChem BioAssay data set” (2004) are described below.

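Grown in 96-well plates, cells were treated for 48 hours with each compound at five concentrations. Insufficient inhibition: endpoint recorded as highest concentration tested. Here, GI50 denotes the concentration required for 50% inhibition of growth.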 Activity calls are given as the source filed them. No stated cut-off is given here; in the data, active = GI50 up to about 1.1 µM and inactive = higher.

Some test systems named below: MCF7; HCT-15; IGROV-1; SK-MEL-5; UACC-62; HOP-92; M14; SNB-19; OVCAR-3; OVCAR-5; T47D; KM12; SNB-75; SN12C; RXF 393; PC-3; ACHN; K562; SK-MEL-2; Hs-578T.
What all share (test): DTP human tumour cell line panel, 48 h

Take `C=C1C(=O)O[C@@H]2C[C@@]3(C)CCC[C@H](C)C3=C[C@H]12` [HELENINE]: the GI50 in the assay with MCF7 is 4.58 µM (inactive); in the assay on HCT-15 it was 4.3 µM; in the assay with IGROV-1 it was 16.1 µM (inactive); in the assay on SK-MEL-5, 4.8 µM (inactive); in the assay on UACC-62 it was 6.46 µM (inactive); in the assay with HOP-92 it was 2.43 µM (inactive). In addition, the GI50 is 3.08 µM (inactive) with M14; 16.5 µM (inactive) in the assay on SNB-19; 6.89 µM (inactive) with OVCAR-3; 17.5 µM (inactive) in the assay with OVCAR-5; 2.64 µM (inactive) in the assay on T47D; 12 µM (inactive) in the assay on KM12. Further, the GI50 is 3.46 µM (inactive) in the assay with SNB-75; 3.01 µM (inactive) with SN12C; 6.12 µM (inactive) in the assay with RXF 393; 11.6 µM (inactive) in the assay with PC-3; 10 µM (inactive) in the assay with ACHN; 3.02 µM (inactive) in the assay with K562. In addition, the GI50 was 3.24 µM (inactive) in the assay on SK-MEL-2 and 4.99 µM (inactive) in the assay with Hs-578T.

The GI50 is the concentration at which growth is held to half of that of the control.
